According to US20240252488A1 (KOREA RESEARCH INSTITUTE OF CHEMICAL TECHNOLOGY, priority 2020, published 2024):

Tests used:
[1] = test system: FADD−/− Jurkat cells; assay: Necroptosis inhibition assay, TNF-α-induced necroptosis (CellTiter-Glo 2.0); assay type: cell-based, human; details: TNF-α 15 ng/mL; for Necroptosis inhibition assay (Rescue %) 1 μM: compound 1 μM; for Necroptosis inhibition assay (Rescue %) 10 μM: compound 10 μM
In short: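 Cmpd 0.1/1/10 μM final, 30 min RT preincubation; TNF-α 15 ng/mL final; 20–24 h, 37° C, 5% CO2. Readout: ATP luminescence (reagent 1:3 in PBS), 0.5 s/well. Cytotoxicity and % necroptosis inhibition calculated from signal.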

[2] = biological target: T1, MLKL (Homo sapiens, UniProt Q8NB16); assay: MLKL degradation assay in HepG2 cell line (western blot); assay type: cell-based; parameters: endogenous in cells; host or cells: HepG2 or HaCaT; details: cell line not given; for Degradation assay (Degradation %) 1 μM: compound 1 μM; for Degradation assay (Degradation %) 10 μM: compound 10 μM
T1 sequence (Q8NB16 1-471): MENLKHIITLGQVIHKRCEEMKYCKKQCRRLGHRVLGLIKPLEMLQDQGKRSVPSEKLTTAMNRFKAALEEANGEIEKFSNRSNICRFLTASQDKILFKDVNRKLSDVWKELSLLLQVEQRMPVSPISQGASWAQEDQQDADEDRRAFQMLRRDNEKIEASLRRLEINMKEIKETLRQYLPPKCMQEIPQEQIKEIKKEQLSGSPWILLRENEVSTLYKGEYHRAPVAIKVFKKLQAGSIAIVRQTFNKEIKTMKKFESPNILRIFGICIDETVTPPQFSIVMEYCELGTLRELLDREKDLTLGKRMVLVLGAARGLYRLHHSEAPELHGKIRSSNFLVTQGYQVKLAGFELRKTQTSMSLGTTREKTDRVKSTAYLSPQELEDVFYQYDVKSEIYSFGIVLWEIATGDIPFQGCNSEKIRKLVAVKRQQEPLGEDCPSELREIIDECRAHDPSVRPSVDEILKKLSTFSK
In short: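 HepG2, cpd final 1 or 10 μM, 20-24 h, 37 °C/5% CO2; RIPA lysis, BCA-normalized, 10-15 μg/lane SDS-PAGE, western blot, ECL read-out.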

[3] = biological target: T1, MLKL; assay: Measurement of binding affinity with MLKL receptor (competitive binding assay, Kd); parameters: made in house; host or cells: HEK 293 cell line (T7 phage in E. coli BL21-derived host is also described)
In short: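 MLKL was produced in HEK 293 cells and tagged with DNA for detection. Liganded beads were blocked with excess biotin and washed to cut non-specific binding, then compounds (111× DMSO stocks, 0.9% DMSO in assay) competed for binding. Eluate kinase was measured by qPCR for Kd.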

Row | Compound | Necroptosis inhibition assay (Rescue %) 1 μM ([1]; FADD−/− Jurkat cells) | Necroptosis inhibition assay (Rescue %) 10 μM ([1]; FADD−/− Jurkat cells) | Degradation assay (Degradation %) 1 μM [2] | Degradation assay (Degradation %) 10 μM [2] | Kd [3] | Necroptosis inhibition assay (Rescue %) 1.1 μM ([1]; compound 1.1 µM) | Necroptosis inhibition assay (Rescue %) 10 μM [1] | Necroptosis inhibition assay (Rescue %) 1 μM [1]
1 | COc1ccc(C(=O)N2CCC(CN3CCC(CN4CCC(n5cc(-c6cnc(N)c(C(=O)O[C@@H](C(=O)Nc7ccc(F)cc7)c7ccccc7)n6)cn5)CC4)CC3)CC2)cc1N1CCC(=O)NC1=O [TDH-477, (R)-2-((4-fluorophenyl)amino)-2-oxo-1-phenylethyl 3-amino-6-(1-(1-((1-((1-(3-(2,4-dioxotetrahydropyrimidin-1(2H)-yl)-4-methoxybenzoyl)piperidin-4-yl)methyl)piperidin-4-yl)methyl)piperidin-4-yl)-1H-pyrazol-4-yl)pyrazine-2-carboxylate] | 62.38% | 21.83% | 92.48% | 90.67% | 0.26 nM |  |  | 
2 | COc1ccc(C(=O)N2CCC(C(=O)N3CCC(CN4CCC(n5cc(-c6cnc(N)c(C(=O)O[C@@H](C(=O)Nc7ccc(F)cc7)c7ccccc7)n6)cn5)CC4)CC3)CC2)cc1N1CCC(=O)NC1=O [TDH-515, (R)-2-((4-fluorophenyl)amino)-2-oxo-1-phenylethyl 3-amino-6-(1-(1-((1-(1-(3-(2,4-dioxotetrahydropyrimidin-1(2H)-yl)-4-methoxybenzoyl)piperidine-4-carbonyl)piperidin-4-yl)methyl)piperidin-4-yl)-1H-pyrazol-4-yl)pyrazine-2-carboxylate] | 68.04% | 15.68% | 95.21% | 89.06% | 1.4 nM |  |  | 
3 | Nc1ncc(-c2cnn(C3CCN(CC4CCN(CC5CCN(C(=O)c6cccc(C(=O)NC7CCC(=O)NC7=O)c6)CC5)CC4)CC3)c2)nc1C(=O)O[C@@H](C(=O)Nc1ccc(F)cc1)c1ccccc1 (stereo partly drawn) [TDH-546, (R)-2-((4-fluorophenyl)amino)-2-oxo-1-phenylethyl 3-amino-6-(1-(1-((1-((1-(3-((2,6-dioxopiperidin-3-yl)carbamoyl)benzoyl)piperidin-4-yl)methyl)piperidin-4-yl)methyl)piperidin-4-yl)-1H-pyrazol-4-yl)pyrazine-2-carboxylate] | 31.08% | 28.77% | 70.89% | 81.41% | 0.4 nM |  |  | 
4 | Nc1ncc(-c2cnn(C3CCN(CCOC4CCN(C(=O)COc5ccc6c(c5)C(=O)N(C5CCC(=O)NC5=O)C6=O)CC4)CC3)c2)nc1C(=O)O[C@@H](C(=O)Nc1ccc(F)cc1)c1ccccc1 (stereo partly drawn) [TDH-332, (R)-2-((4-fluorophenyl)amino)-2-oxo-1-phenylethyl 3-amino-6-(1-(1-(2-((1-(2-((2-(2,6-dioxopiperidin-3-yl)-1,3-dioxoisoindolin-5-yl)oxy)acetyl)piperidin-4-yl)oxy)ethyl)piperidin-4-yl)-1H-pyrazol-4-yl)pyrazine-2-carboxylate] |  |  | 61.62% | 63.17% | 2.6 nM | 68.62 (1.1 µM) % | 37.17% | 
5 | Nc1ncc(-c2cnn(C3CCN(CCCN4CCN(C(=O)CCc5cccc6c5CN(C5CCC(=O)NC5=O)C6=O)CC4)CC3)c2)nc1C(=O)O[C@@H](C(=O)Nc1ccc(F)cc1)c1ccccc1 (stereo partly drawn) [TDH-386, (R)-2-((4-fluorophenyl)amino)-2-oxo-1-phenylethyl 3-amino-6-(1-(1-(3-(4-(3-(2-(2,6-dioxopiperidin-3-yl)-1-oxoisoindolin-4-yl)propanoyl)piperazin-1-yl)propyl)piperidin-4-yl)-1H-pyrazol-4-yl)pyrazine-2-carboxylate] |  |  | 79.68% | 71.14% | 0.93 nM |  | 20.76% | 34.89%
6 | Nc1ncc(-c2cnn(C3CCN(C(=O)COCCOCCNC(=O)C4CCN(c5ccc6c(c5)C(=O)N(C5CCC(=O)NC5=O)C6=O)CC4)CC3)c2)nc1C(=O)O[C@@H](C(=O)Nc1ccc(F)cc1)c1ccccc1 (stereo partly drawn) [TDH-195, (R)-2-((4-fluorophenyl)amino)-2-oxo-1-phenylethyl 3-amino-6-(1-(1-(2-(2-(2-(1-(2-(2,6-dioxopiperidin-3-yl)-1,3-dioxoisoindolin-5-yl)piperidine-4-carboxamido)ethoxy)ethoxy)acetyl)piperidin-4-yl)-1H-pyrazol-4-yl)pyrazine-2-carboxylate] |  |  | 63.85% | 29.78% | 6.9 nM |  | 39.24% | 80.66%
7 | Nc1ncc(-c2cnn(C3CCN(CC4CN(C(=O)C5CCN(c6cccc7c6C(=O)N(C6CCC(=O)NC6=O)C7=O)CC5)CCO4)CC3)c2)nc1C(=O)OC(C(=O)Nc1ccc(F)cc1)c1ccccc1 (stereo not shown) [TDH-304, 2-((4-fluorophenyl)amino)-2-oxo-1-phenylethyl 3-amino-6-(1-(1-((4-(1-(2-(2,6-dioxopiperidin-3-yl)-1,3-dioxoisoindolin-4-yl)piperidine-4-carbonyl)morpholin-2-yl)methyl)piperidin-4-yl)-1H-pyrazol-4-yl)pyrazine-2-carboxylate] |  |  | 85.02% | 84.91% | 2.9 nM |  | 35.22% | 38.26%
8 | Nc1ncc(-c2cnn(C3CCN(CCc4cn(C5CCN(C(=O)CNc6ccc7c(c6)C(=O)N(C6CCC(=O)NC6=O)C7=O)CC5)nn4)CC3)c2)nc1C(=O)O[C@@H](C(=O)Nc1ccc(F)cc1)c1ccccc1 (stereo partly drawn) [TDH-452, (R)-2-((4-fluorophenyl)amino)-2-oxo-1-phenylethyl 3-amino-6-(1-(1-(2-(1-(1-((2-(2,6-dioxopiperidin-3-yl)-1,3-dioxoisoindolin-5-yl)glycyl)piperidin-4-yl)-1H-1,2,3-triazol-4-yl)ethyl)piperidin-4-yl)-1H-pyrazol-4-yl)pyrazine-2-carboxylate] | 38.27% | 26.02% | 61.94% | 52.12% | 1.8 nM |  |  | 
9 | Nc1ncc(-c2cnn(C3CCN(CCOCCOCCOCCNc4ccc5c(c4)C(=O)N(C4CCC(=O)NC4=O)C5=O)CC3)c2)nc1C(=O)O[C@@H](C(=O)Nc1ccc(F)cc1)c1ccccc1 (stereo partly drawn) [TDH-154, (R)-2-((4-fluorophenyl)amino)-2-oxo-1-phenylethyl 3-amino-6-(1-(1-(2-(2-(2-(2-((2-(2,6-dioxopiperidin-3-yl)-1,3-dioxoisoindolin-5-yl)amino)ethoxy)ethoxy)ethoxy)ethyl)piperidin-4-yl)-1H-pyrazol-4-yl)pyrazine-2-carboxylate] |  |  | 25.56% | 28.19% | 3.8 nM |  | 23.23% | 37.01%
10 | Nc1ncc(-c2cnn(C3CCN(CCCN4CCN(C(=O)CNc5ccc6c(c5)C(=O)N(C5CCC(=O)NC5=O)C6=O)CC4)CC3)c2)nc1C(=O)OC(C(=O)Nc1ccc(F)cc1)c1ccccc1 (stereo not shown) [TDH-242, 2-((4-fluorophenyl)amino)-2-oxo-1-phenylethyl 3-amino-6-(1-(1-(3-(4-((2-(2,6-dioxopiperidin-3-yl)-1,3-dioxoisoindolin-5-yl)glycyl)piperazin-1-yl)propyl)piperidin-4-yl)-1H-pyrazol-4-yl)pyrazine-2-carboxylate] |  |  | 75.75% | 66.84% | 2.5 nM |  | 44.8% | 71.4%
11 | Nc1ncc(-c2cnn(C3CCN(CCOCCOCCOCCNC(=O)COc4ccc5c(c4)C(=O)N(C4CCC(=O)NC4=O)C5=O)CC3)c2)nc1C(=O)O[C@@H](C(=O)Nc1ccc(F)cc1)c1ccccc1 (stereo partly drawn) [TDH-166, (R)-2-((4-fluorophenyl)amino)-2-oxo-1-phenylethyl 3-amino-6-(1-(1-(1-((2-(2,6-dioxopiperidin-3-yl)-1,3-dioxoisoindolin-5-yl)oxy)-2-oxo-6,9,12-trioxa-3-azatetradecan-14-yl)piperidin-4-yl)-1H-pyrazol-4-yl)pyrazine-2-carboxylate] |  |  | 18.17% | 60.05% | 3.4 nM |  | 65.57% | 27.44%
